Like-named read-outs stand apart in the source and are kept apart here.
What was measured:
[1] = system: HT29SN-38-RES cells; assay: MDR reversal analysis with MTT assay, HT29SN-38-RES; type: cell-based, human; settings: 72 hours, oxaliplatin is not a substrate for BCRP
Method: Control conditions consisted of full growth medium. All treatments were performed in triplicate.

[2] = molecular target: T1, ABCG2 (Homo sapiens, UniProt Q9UNQ0); assay: Pheophorbide A accumulation assay in MDCK cells; type: cell-based; settings: flow cytometry
T1 construct: expressed in transfected cells; host or cells: MDCK-II (canine kidney)
From the text: 67 literature as a standard inhibitor for potency assessment of new compounds, was used as a
69 intra cellular fluorescence values in the steady state measured by flow cytometry for each
73 experiment is depicted.

[3] = molecular target: T2, BCRP (Homo sapiens, UniProt Q9UNQ0); assay: Fluorometric transporter inhibition, BCRP-CHO; type: in vitro ADME; settings: Hoechst 33342 substrate
T2 sequence (Q9UNQ0 1-655): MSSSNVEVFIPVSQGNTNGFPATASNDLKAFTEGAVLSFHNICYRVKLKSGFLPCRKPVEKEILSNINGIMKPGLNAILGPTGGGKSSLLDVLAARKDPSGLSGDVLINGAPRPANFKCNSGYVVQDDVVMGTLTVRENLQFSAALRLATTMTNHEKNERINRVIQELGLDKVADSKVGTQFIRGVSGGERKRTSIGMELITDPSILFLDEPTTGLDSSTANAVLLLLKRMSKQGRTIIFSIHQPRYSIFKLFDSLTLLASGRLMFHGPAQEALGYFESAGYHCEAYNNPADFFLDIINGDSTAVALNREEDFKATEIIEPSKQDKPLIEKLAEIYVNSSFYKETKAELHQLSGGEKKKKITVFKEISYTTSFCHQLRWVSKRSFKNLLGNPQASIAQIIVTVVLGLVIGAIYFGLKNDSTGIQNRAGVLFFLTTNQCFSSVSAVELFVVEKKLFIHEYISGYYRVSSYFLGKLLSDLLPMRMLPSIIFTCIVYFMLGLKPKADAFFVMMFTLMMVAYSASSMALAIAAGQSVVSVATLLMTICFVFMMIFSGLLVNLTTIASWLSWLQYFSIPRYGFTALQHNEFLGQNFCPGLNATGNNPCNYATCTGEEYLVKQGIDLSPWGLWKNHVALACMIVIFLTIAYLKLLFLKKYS
Method: Cells were seeded in a 96-well plate (20,000 cells/well) and used on days 2 or 3 post-seeding. […] Subsequently, substrate was added to the plate followed by 20 min incubation at 37 °C. The plate was then washed with cold assay buffer followed by fluorescence reading on a plate reader. The tested transporters, cell lines, substrates, and reference inhibitors are shown in the Supplementary Materials (Tables S1 and S2).
110 Table S1. […]
120 transporters (P-gp and BCRP), increased fluorescence signal represents inhibition of the transporter activity.
The IC50 values are shown for the analysed transporters with […]

[4] = system: CYP1A; assay: CYP induction in human hepatocytes, CYP1A enzyme activity; type: in vitro ADME
[5] = system: CYP2B6; assay: CYP induction in human hepatocytes, CYP2B6 enzyme activity; type: in vitro ADME
[6] = system: CYP3A; assay: CYP induction in human hepatocytes, CYP3A enzyme activity; type: in vitro ADME
Method: The following procedure was carried out to test whether SCO-201 induces CYP1A, CYP2B6, and CYP3A activities in human hepatocytes. The procedure was designed in accordance with the FDA Guidance for Industry on Drug Interaction Studies (2006). Male and female human hepatocytes were thawed and plated into collagen-coated 96-well plates in serum-containing medium (plating medium) at a density of 0.7 × 10^6 viable cells/mL. The hepatocytes were cultured in a humidified incubator at 37 °C and 5% CO2. At 4 h post plating, human hepatocytes were washed once with fresh plating medium, followed by overnight incubation. At 24 h after plating, the plating medium was removed, and the hepatocytes were overlaid with extracellular matrix (ECM) (Sigma) or Matrigel (BD) in the serum-free medium (incubation medium), and then incubated for another 24 h. Incubation medium with 0.1% DMSO was used as the negative control. After the 2-day recovery period, the hepatocytes were treated with SCO-201 or a known inducer (Table S3) in the incubation medium on day 3 and day 4. The known inducer was tested as the positive control. On day 5, the medium was removed, and the cells were incubated with the respective CYP substrate in Krebs–Henseleit buffer (pH 7.4) containing 3 mM salicylamide for 30 min. The reaction was terminated by transferring the incubation mixture to an equal volume of acetonitrile/methanol mixture (1/1, v/v). Samples were mixed and centrifuged. Supernatants are used for HPLC-MS/MS analysis of the corresponding metabolite. Peak areas corresponding to the metabolite were recorded. The assay was rendered valid if enzyme activity with the positive control was at least twofold greater than negative control.
Cells 2020, 9, x FOR PEER REVIEW 9 of 9
Substrate (conc.) Metabolite Assay
Ethoxyresorufin (2 µM) Resorufin CYP1A
Bupropion (200 µM) Hydrozyl-bupropion CYP2B6
Midazolam (10 µM) 1-hydroxymidazolam CYP3A
139 Table S3: In vitro DMPK analysis: CYP induction.
140 were applied as inducers of the investigated CYPs.
144 References for supplementary materials
146 1. […]

[7] = system: CYP3A; assay: CYP induction in human hepatocytes, CYP3A mRNA; type: in vitro ADME; settings: plated human hepatocytes
[8] = molecular target: CYP1A (Homo sapiens, UniProt P05177)
Sequence of CYP1A (Homo sapiens, UniProt P05177) (P05177 whole entry): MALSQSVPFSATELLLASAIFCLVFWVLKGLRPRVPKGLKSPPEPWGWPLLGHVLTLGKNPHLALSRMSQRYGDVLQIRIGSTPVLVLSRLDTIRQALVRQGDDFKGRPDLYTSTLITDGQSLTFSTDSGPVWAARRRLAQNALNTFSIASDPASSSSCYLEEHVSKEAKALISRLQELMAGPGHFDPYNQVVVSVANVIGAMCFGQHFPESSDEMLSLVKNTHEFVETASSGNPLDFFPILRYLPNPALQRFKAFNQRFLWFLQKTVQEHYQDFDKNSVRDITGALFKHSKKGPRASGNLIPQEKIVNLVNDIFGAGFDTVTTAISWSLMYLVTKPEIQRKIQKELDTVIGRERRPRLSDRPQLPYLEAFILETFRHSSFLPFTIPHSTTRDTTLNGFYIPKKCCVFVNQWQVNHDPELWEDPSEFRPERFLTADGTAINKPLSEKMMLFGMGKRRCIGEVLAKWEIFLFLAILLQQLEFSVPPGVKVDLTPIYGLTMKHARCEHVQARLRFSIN

[9] = molecular target: T2, BCRP; assay: […] ATPase assay with recombinant BCRP membranes; type: biochemical; set-up: purchased Solvo Biotechnology (via Sigma-Aldrich/Merck) SB-BCRP-M
Method: After incubation with test compounds, MgATP was added to each well and incubated at 37 °C for 10 min. The ATPase reaction was stopped by the addition of 1x Developer solution at room temperature (RT). Two minutes after, 100 µL Blocker solution was added and the plate was incubated for 30 min at 37 °C for 30 min. The optical densities were measured at 620 nm using a PowerWave X Microplate spectrophotometer (BioTek, Bad Friedrichshall, Germany).

[10] = molecular target: T2, BCRP; assay: Cellular dye efflux assay (Hoechst 33342) in HT29SN-38-RES cells; type: cell-based; set-up: endogenous in cells; host or cells: HT29 SN-38-RES (drug-selected HT29)
Method: HT29 cells were seeded either into a 96-well Nunclon plate (Thermo Fisher Scientific, Roskilde, Denmark) at a density of 6000 cells/well (for Celigo Imaging Cytometry) or into a Nunc 6-well plate at a density of 150,000 cells/well (for fluorescence microscopy). […] Then, the cells were washed with ice-cold PBS to remove excess Hoechst dye. Drugs were added again and the cells were incubated for 1h at 37 °C. The plates were analyzed with either fluorescence microscopy (6-well plates) or imaging cytometry (96-well plates). For the Celigo Imaging Cytometry (Lawrence, MA, USA), the application “Target 1 + 2 (merge)” was used, and the mean fluorescence intensities were measured and data presented as percentage of parental control.

Nc1nc(-c2ccccc2)nc2[nH]nc(Nc3ccc(C(F)(F)F)cc3)c12 [SCO-201]
combinatorial effect with oxaliplatin on cell viability [1]: no added effects | IC50 [2]: 145 nM | IC50 [3]: 1700 nM | Mean Fold Enzyme Activity Induction at 1 × 10^−4 M ([4]; Donor 1): 1 | Mean Fold Enzyme Activity Induction at 1 × 10^−4 M ([4]; Donor 2): 0.7 | Mean Fold Enzyme Activity Induction at 1 × 10^−4 M ([4]; Donor 3): 0.7 | Mean Fold Enzyme Activity Induction at 1 × 10^−4 M ([5]; Donor 1): 0.8 | Mean Fold Enzyme Activity Induction at 1 × 10^−4 M ([5]; Donor 2): 0.9 | Mean Fold Enzyme Activity Induction at 1 × 10^−4 M ([5]; Donor 3): 0.6 | Mean Fold Enzyme Activity Induction at 1 × 10^−4 M ([6]; Donor 1): 1.3 | Mean Fold Enzyme Activity Induction at 1 × 10^−4 M ([6]; Donor 2): 2.0 | Mean Fold Enzyme Activity Induction at 1 × 10^−4 M ([6]; Donor 3): 0.4 | fold induction at 2 days ([7]; Donor 1, read-out: Mean Fold Induction of mRNA at 1× 10^−4 M): 0.25 | fold induction at 2 days ([7]; Donor 2, read-out: Mean Fold Induction of mRNA at 1× 10^−4 M): 0.25 | fold induction at 2 days ([7]; Donor 3, read-out: Mean Fold Induction of mRNA at 1× 10^−4 M): 0.32 | IC50 [8]: > 100000 nM | ATPase activity of BCRP, sulfasalazine-stimulated ([9]; SCO-201 added to sulfasalazine-stimulated BCRP): decreased in a dose-dependent manner | ATPase activity of BCRP, basal ([9]; in the absence of sulfasalazine): decreased dose-dependently | SN-38-stimulated ATPase activity of BCRP ([9]; in the presence of 0.5 µM or 1.5 µM SCO-201): shifted downwards | Hoechst accumulation in resistant cells ([10]; fluorescence microscopy and imaging cytometry): accumulated to the level of the parental control cells | IC50 ([10]; imaging cytometry, read-out: IC50, accumulation of Hoechst dye): 450 nM
